# Assay results published in ChEMBL document CHEMBL1201862, “PubChem BioAssay data set” (2004).
#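 Grown in 96-well plates, cells were treated for 48 hours with each compound at five concentrations. Insufficient inhibition: endpoint recorded as highest concentration tested. GI50 is the concentration that inhibits growth by half.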 Activity calls are given as the source filed them. Rule as the data show it: active = GI50 up to about 1.1 µM and inactive = higher.
# Assays:
# Assay in all cases: DTP human tumour cell line panel, 48 h
# 786-0 = system: 786-0
# A498 = system: A498
# A549 = system: A549
# BT-549 = system: BT-549
# CAKI-1 = system: CAKI-1
# COLO 205 = system: COLO 205
# DU-145 = system: DU-145
# EKVX = system: EKVX
# HCC 2998 = system: HCC 2998
# HCT-116 = system: HCT-116
# HCT-15 = system: HCT-15
# HL-60 = system: HL-60
# HOP-92 = system: HOP-92
# HT-29 = system: HT-29
# Hs-578T = system: Hs-578T
# IGROV-1 = system: IGROV-1
# K562 = system: K562
# KM12 = system: KM12
# LOX IMVI = system: LOX IMVI
# M14 = system: M14
# MCF7 = system: MCF7
# MDA-MB-231 = system: MDA-MB-231
# MDA-MB-435 = system: MDA-MB-435
# MDA-N = system: MDA-N
# MOLT-4 = system: MOLT-4
# Malme-3M = system: Malme-3M
# NCI-H226 = system: NCI-H226
# NCI-H23 = system: NCI-H23
# NCI-H460 = system: NCI-H460
# NCI/ADR-RES = system: NCI/ADR-RES
# OVCAR-3 = system: OVCAR-3
# OVCAR-4 = system: OVCAR-4
# OVCAR-5 = system: OVCAR-5
# OVCAR-8 = system: OVCAR-8
# PC-3 = system: PC-3
# RPMI-8226 = system: RPMI-8226
# RXF 393 = system: RXF 393
# SF-268 = system: SF-268
# SF-539 = system: SF-539
# SK-MEL-28 = system: SK-MEL-28
# SK-MEL-2 = system: SK-MEL-2
# SK-MEL-5 = system: SK-MEL-5
# SK-OV-3 = system: SK-OV-3
# SN12C = system: SN12C
# SNB-19 = system: SNB-19
# SNB-75 = system: SNB-75
# SR = system: SR
# SW-620 = system: SW-620
# T47D = system: T47D
# TK-10 = system: TK-10
# U-251 = system: U-251
# UACC-257 = system: UACC-257
# UACC-62 = system: UACC-62
# UO-31 = system: UO-31
# CCRF-CEM = system: CCRF-CEM
# HOP-62 = system: HOP-62
# SF-295 = system: SF-295
# ACHN = system: ACHN
structure (smiles),measurement,setting,value
C=C1CN(C(=O)c2cc3cc(OC)c(OC)c(OC)c3[nH]2)c2cc([N+](=O)[O-])ccc21,GI50,786-0,30.5 µM (inactive)
same,GI50,A498,64.4 µM (inactive)
same,GI50,A549,> 100 µM (inactive)
same,GI50,BT-549,61.2 µM (inactive)
same,GI50,CAKI-1,> 100 µM (inactive)
same,GI50,COLO 205,> 100 µM (inactive)
same,GI50,DU-145,> 100 µM (inactive)
same,GI50,EKVX,> 100 µM (inactive)
same,GI50,HCC 2998,> 100 µM (inactive)
same,GI50,HCT-116,> 100 µM (inactive)
same,GI50,HCT-15,> 100 µM
same,GI50,HL-60,> 100 µM (inactive)
same,GI50,HOP-92,33.8 µM (inactive)
same,GI50,HT-29,> 100 µM (inactive)
same,GI50,Hs-578T,4.47 µM (inactive)
same,GI50,IGROV-1,> 100 µM (inactive)
same,GI50,K562,> 100 µM (inactive)
same,GI50,KM12,> 100 µM (inactive)
same,GI50,LOX IMVI,> 100 µM (inactive)
same,GI50,M14,> 100 µM (inactive)
same,GI50,MCF7,> 100 µM (inactive)
same,GI50,MDA-MB-231,17.5 µM (inactive)
same,GI50,MDA-MB-435,> 100 µM (inactive)
same,GI50,MDA-N,> 100 µM (inactive)
same,GI50,MOLT-4,69.3 µM (inactive)
same,GI50,Malme-3M,> 100 µM (inactive)
same,GI50,NCI-H226,> 100 µM (inactive)
same,GI50,NCI-H23,65 µM (inactive)
same,GI50,NCI-H460,> 100 µM (inactive)
same,GI50,NCI/ADR-RES,> 100 µM (inactive)
same,GI50,OVCAR-3,> 100 µM (inactive)
same,GI50,OVCAR-4,> 100 µM (inactive)
same,GI50,OVCAR-5,> 100 µM (inactive)
same,GI50,OVCAR-8,> 100 µM (inactive)
same,GI50,PC-3,> 100 µM (inactive)
same,GI50,RPMI-8226,> 100 µM (inactive)
same,GI50,RXF 393,14.6 µM (inactive)
same,GI50,SF-268,15.5 µM (inactive)
same,GI50,SF-539,> 100 µM (inactive)
same,GI50,SK-MEL-28,> 100 µM (inactive)
same,GI50,SK-MEL-2,34.8 µM (inactive)
same,GI50,SK-MEL-5,> 100 µM (inactive)
same,GI50,SK-OV-3,33.2 µM (inactive)
same,GI50,SN12C,> 100 µM (inactive)
same,GI50,SNB-19,45.8 µM (inactive)
same,GI50,SNB-75,51.1 µM (inactive)
same,GI50,SR,> 100 µM (inactive)
same,GI50,SW-620,> 100 µM (inactive)
same,GI50,T47D,> 100 µM (inactive)
same,GI50,TK-10,26.5 µM (inactive)
same,GI50,U-251,19.1 µM (inactive)
same,GI50,UACC-257,> 100 µM (inactive)
same,GI50,UACC-62,> 100 µM (inactive)
same,GI50,UO-31,> 100 µM (inactive)
O=C1CC2(CCC(O)(c3ccco3)C(C(=O)c3ccco3)C2)C(=O)c2ccccc2N1 (stereo not given),GI50,A498,> 100 µM (inactive)
same,GI50,A549,> 100 µM (inactive)
same,GI50,BT-549,92 µM (inactive)
same,GI50,CAKI-1,> 100 µM (inactive)
same,GI50,CCRF-CEM,> 10 µM (inactive)
same,GI50,COLO 205,> 100 µM (inactive)
same,GI50,DU-145,> 100 µM (inactive)
same,GI50,EKVX,> 100 µM (inactive)
same,GI50,HCC 2998,55.8 µM (inactive)
same,GI50,HCT-116,88.7 µM (inactive)
same,GI50,HCT-15,53.8 µM
same,GI50,HL-60,27.3 µM (inactive)
same,GI50,HOP-62,> 100 µM (inactive)
same,GI50,HOP-92,56.9 µM (inactive)
same,GI50,HT-29,> 100 µM (inactive)
same,GI50,Hs-578T,55.1 µM (inactive)
same,GI50,IGROV-1,99.1 µM (inactive)
same,GI50,K562,50.1 µM (inactive)
same,GI50,LOX IMVI,48.6 µM (inactive)
same,GI50,M14,99.5 µM (inactive)
same,GI50,MCF7,> 100 µM (inactive)
same,GI50,MDA-MB-231,> 100 µM (inactive)
same,GI50,MDA-MB-435,> 100 µM (inactive)
same,GI50,MDA-N,> 100 µM (inactive)
same,GI50,Malme-3M,> 100 µM (inactive)
same,GI50,NCI-H226,> 100 µM (inactive)
same,GI50,NCI-H23,> 100 µM (inactive)
same,GI50,NCI-H460,29.5 µM (inactive)
same,GI50,NCI/ADR-RES,64.6 µM (inactive)
same,GI50,OVCAR-3,84.7 µM (inactive)
same,GI50,OVCAR-4,17.3 µM (inactive)
same,GI50,OVCAR-5,> 100 µM (inactive)
same,GI50,OVCAR-8,86.9 µM (inactive)
same,GI50,PC-3,54 µM (inactive)
same,GI50,RXF 393,> 100 µM (inactive)
same,GI50,SF-268,> 100 µM (inactive)
same,GI50,SF-295,> 100 µM (inactive)
same,GI50,SF-539,> 100 µM (inactive)
same,GI50,SK-MEL-2,> 100 µM (inactive)
same,GI50,SK-MEL-5,51.4 µM (inactive)
same,GI50,SK-OV-3,> 100 µM (inactive)
same,GI50,SN12C,> 100 µM (inactive)
same,GI50,SNB-75,32.2 µM (inactive)
same,GI50,SR,> 100 µM (inactive)
same,GI50,SW-620,> 100 µM (inactive)
same,GI50,T47D,26.1 µM (inactive)
same,GI50,TK-10,> 100 µM (inactive)
same,GI50,U-251,> 100 µM (inactive)
same,GI50,UACC-257,> 100 µM (inactive)
same,GI50,UACC-62,> 100 µM (inactive)
same,GI50,UO-31,24.7 µM (inactive)
CCOC(=O)C(Cc1ccc(N(CCCl)CCCl)cc1)NC(=O)C(Cc1ccccc1)NC(C)=O (stereo not given),GI50,786-0,0.184 µM (active)
same,GI50,A498,> 0.288 µM (active)
same,GI50,A549,> 0.569 µM (active)
same,GI50,ACHN,25.5 nM (active)
same,GI50,BT-549,> 0.583 µM (active)
same,GI50,CAKI-1,0.111 µM (active)
same,GI50,CCRF-CEM,0.0353 µM (active)
same,GI50,COLO 205,0.213 µM (active)
same,GI50,DU-145,> 0.582 µM (active)
same,GI50,EKVX,> 0.347 µM (active)
same,GI50,HCC 2998,> 1 µM (active)
same,GI50,HCT-116,> 0.265 µM (active)
same,GI50,HCT-15,> 0.378 µM
same,GI50,HL-60,0.0908 µM (active)
same,GI50,HOP-62,0.275 µM (active)
same,GI50,HOP-92,0.621 µM (active)
same,GI50,Hs-578T,> 0.368 µM (active)
same,GI50,IGROV-1,0.0414 µM (active)
same,GI50,K562,> 0.279 µM (active)
same,GI50,KM12,> 0.338 µM (active)
same,GI50,LOX IMVI,0.111 µM (active)
same,GI50,M14,0.141 µM (active)
same,GI50,MCF7,0.163 µM (active)
same,GI50,MDA-MB-231,> 0.284 µM (active)
same,GI50,MDA-MB-435,0.264 µM (active)
same,GI50,MDA-N,> 0.262 µM (active)
same,GI50,MOLT-4,0.0581 µM (active)
same,GI50,Malme-3M,0.0887 µM (active)
same,GI50,NCI-H226,> 1 µM (active)
same,GI50,NCI-H23,0.162 µM (active)
same,GI50,NCI-H460,0.222 µM (active)
same,GI50,NCI/ADR-RES,> 0.33 µM (active)
same,GI50,OVCAR-3,0.173 µM (active)
same,GI50,OVCAR-4,0.0159 µM (active)
same,GI50,OVCAR-5,> 0.293 µM (active)
same,GI50,OVCAR-8,> 0.322 µM (active)
same,GI50,PC-3,> 0.254 µM (active)
same,GI50,RPMI-8226,0.0655 µM (active)
same,GI50,RXF 393,0.106 µM (active)
same,GI50,SF-268,0.126 µM (active)
same,GI50,SF-295,> 0.326 µM (active)
same,GI50,SF-539,0.175 µM (active)
same,GI50,SK-MEL-2,> 0.265 µM (active)
same,GI50,SK-MEL-5,0.248 µM (active)
same,GI50,SK-OV-3,> 0.296 µM (active)
same,GI50,SN12C,0.155 µM (active)
same,GI50,SNB-19,> 0.38 µM (active)
same,GI50,SNB-75,> 1 µM (active)
same,GI50,SR,0.153 µM (active)
same,GI50,SW-620,0.236 µM (active)
same,GI50,T47D,0.157 µM (active)
same,GI50,U-251,> 0.316 µM (active)
same,GI50,UACC-257,0.235 µM (active)
same,GI50,UACC-62,0.136 µM (active)
same,GI50,UO-31,0.106 µM (active)
